Assay results from ChEMBL document CHEMBL1146143, “New ligand-based approach for the discovery of antitrypanosomal compounds” (2006).

Assays:
[1] = tested on: Trypanosoma cruzi; assay: Antitrypanosomal activity against Trypanosoma cruzi epimastigotes at 100 ug/ml; type: functional
[2] = tested on: Trypanosoma cruzi; assay: Antitrypanosomal activity against Trypanosoma cruzi epimastigotes at 10 ug/ml; type: functional
[3] = tested on: Trypanosoma cruzi; assay: Antitrypanosomal activity against Trypanosoma cruzi epimastigotes at 1 ug/ml; type: functional
[4] = tested on: J774; assay: Unspecific cytotoxicity against murine J774 macrophages at 100 ug/ml; type: functional, Mus musculus
[5] = tested on: J774; assay: Unspecific cytotoxicity against murine J774 macrophages at 10 ug/ml; type: functional, Mus musculus
[6] = tested on: J774; assay: Unspecific cytotoxicity against murine J774 macrophages at 1 ug/ml; type: functional, Mus musculus
[7] = tested on: Trypanosoma cruzi; assay: Antitrypanosomal activity against Trypanosoma cruzi amastigotes at 100 ug/ml; type: functional
[8] = tested on: Mus musculus; assay: Antitrypanosomal activity against Trypanosoma cruzi infected NMRI mice at 50 mg/kg/day; type: functional
[9] = tested on: Trypanosoma cruzi; assay: Antitrypanosomal activity against Trypanosoma cruzi amastigotes at 10 ug/ml; type: functional
[10] = tested on: Trypanosoma cruzi; assay: Antitrypanosomal activity against Trypanosoma cruzi amastigotes at 1 ug/ml; type: functional

Row | Compound | Activity [1] | Activity [2] | Activity [3] | Activity [4] | Activity [5] | Activity [6] | Activity [7] | Activity [8] | Activity [9] | Activity [10]
1 | CN1CC(=O)N(C)c2cc([N+](=O)[O-])ccc21 | 72.7% | 21.6% | 22.5% | 0% | 0% | 0% | 85.4% | 60.7% |  | 
2 | O=C1Nc2cc([N+](=O)[O-])ccc2N2CCCCC12 (stereo not given) | 77% | 30.9% | 3.9% | 34.2% | 5.6% | 2.4% |  |  |  | 
3 | O=C1Nc2cc([N+](=O)[O-])ccc2N2Cc3ccccc3CC12 (stereo not given) | 72.1% | 29.4% | 19.4% | 50.4% | 0% | 0% |  |  |  | 
4 | CN1C(=O)C[N+](C)(C)c2ccc([N+](=O)[O-])cc21.[Cl-] | 67.2% | 9% | 0.9% | 64.8% | 10.5% | 9.8% |  |  |  | 
5 | O=C1CN(CCCCCCCl)c2ccc([N+](=O)[O-])cc2N1 | 90.9% | 72.1% | 23.2% | 97.4% | 32.9% | 16.6% |  |  | 100% | 
6 | O=C(CN1CCCCC1)Nc1cc([N+](=O)[O-])ccc1Cl | 11% | 1.3% | 21.9% |  |  |  |  |  |  | 
7 | O=C(CN1CCCCC1)Nc1cc([N+](=O)[O-])ccc1F | 14.3% | 4.4% | 0% |  |  |  |  |  |  | 
8 | O=C(CCl)Nc1cc([N+](=O)[O-])ccc1N1CCCCC1 | 84% | 34.8% | 7.1% | 24.9% | 6.3% | 8.1% |  |  |  | 
9 | O=C1Nc2cc([N+](=O)[O-])ccc2N2CCCC12 (stereo not given) | 90.5% | 70.3% | 25.6% | 23.6% | 0% | 0% | 30.2% |  | 13.3% | 
10 | CN1C(=O)CN(CCCCCCl)c2ccc([N+](=O)[O-])cc21 | 83.3% | 82.2% | 15% | 99.5% | 17.8% | 0% |  |  |  | 
11 | O=C(Cn1ccnc1[N+](=O)[O-])NCc1ccccc1 [BENZNIDAZOLE] |  |  |  | 1.4% | 1.6% | 1.9% | 96.6% |  | 9.2% | 83.2%
12 | CC1CS(=O)(=O)CCN1/N=C/c1ccc([N+](=O)[O-])o1 (stereo not given) [NIFURTIMOX] | 98.7% | 90% | 75.5% | 25.9% | 0.6% | 0% | 100% | 100% | 94.4% | 88.1%
